{
  "source": "ChEMBL document CHEMBL3044916",
  "about": "“Attract-and-kill: a new strategy for the management of the potato tuber moths Phthorimaea operculella (Zeller) and Symmetrischema tangolias (Gyen) in potato: laboratory experiments towards optimising pheromone and insecticide concentration” (2010)",
  "key": {"[1]": {"tested_on": "Phthorimaea operculella", "experiment": "Insecticidal activity against Phthorimaea operculella assessed as mortality at 5 g/l after 24 hr by attract-and-kill assay relative to control", "format": "functional"}, "[2]": {"tested_on": "Phthorimaea operculella", "experiment": "Insecticidal activity against Phthorimaea operculella assessed as mortality at 0.35 g/l after 48 hr", "format": "functional"}, "[3]": {"tested_on": "Symmetrischema tangolias", "experiment": "Insecticidal activity against Symmetrischema tangolias assessed as mortality at 0.35 g/l after 24 hr", "format": "functional"}, "[4]": {"tested_on": "Symmetrischema tangolias", "experiment": "Insecticidal activity against Symmetrischema tangolias assessed as mortality at 1.25 g/l after 48 hr", "format": "functional"}, "[5]": {"tested_on": "Phthorimaea operculella", "experiment": "Insecticidal activity against Phthorimaea operculella assessed as mortality at 5 g/l after 48 hr", "format": "functional"}, "[6]": {"tested_on": "Phthorimaea operculella", "experiment": "Insecticidal activity against Phthorimaea operculella assessed as mortality at 5 g/l after 4 days by attract-and-kill assay relative to control", "format": "functional", "conditions": "96 h"}, "[7]": {"tested_on": "Phthorimaea operculella", "experiment": "Insecticidal activity against Phthorimaea operculella assessed as mortality at 5 g/l after 36 days by cage bio assay relative to control", "format": "functional", "conditions": "864 h"}, "[8]": {"tested_on": "Symmetrischema tangolias", "experiment": "Insecticidal activity against Symmetrischema tangolias assessed as mortality at 1.25 g/l after 24 hr", "format": "functional"}, "[9]": {"tested_on": "Phthorimaea operculella", "experiment": "Insecticidal activity against Phthorimaea operculella assessed as mortality at 0.35 g/l after 24 hr", "format": "functional"}, "[10]": {"tested_on": "Symmetrischema tangolias", "experiment": "Insecticidal activity against Symmetrischema tangolias assessed as mortality at 5 g/l after 36 days by cage bio assay relative to control", "format": "functional", "conditions": "864 h"}, "[11]": {"tested_on": "Symmetrischema tangolias", "experiment": "Insecticidal activity against Symmetrischema tangolias assessed as mortality at 0.35 g/l after 48 hr", "format": "functional"}, "[12]": {"tested_on": "Phthorimaea operculella", "experiment": "Insecticidal activity against Phthorimaea operculella assessed as mortality at 5 g/l after 3 days by cage bio assay relative to control", "format": "functional", "conditions": "72 h"}, "[13]": {"tested_on": "Symmetrischema tangolias", "experiment": "Insecticidal activity against Symmetrischema tangolias assessed as mortality at 5 g/l after 24 hr by attract-and-kill assay", "format": "functional, organism-based"}, "[14]": {"tested_on": "Symmetrischema tangolias", "experiment": "Insecticidal activity against Symmetrischema tangolias assessed as mortality at 5 g/l after 24 hr", "format": "functional"}, "[15]": {"tested_on": "Symmetrischema tangolias", "experiment": "Insecticidal activity against Symmetrischema tangolias assessed as mortality at 0.65 g/l after 48 hr", "format": "functional"}, "[16]": {"tested_on": "Symmetrischema tangolias", "experiment": "Insecticidal activity against Symmetrischema tangolias assessed as mortality at 5 g/l after 48 hr", "format": "functional"}, "[17]": {"tested_on": "Phthorimaea operculella", "experiment": "Insecticidal activity against Phthorimaea operculella assessed as mortality at 0.65 g/l after 24 hr", "format": "functional"}, "[18]": {"tested_on": "Symmetrischema tangolias", "experiment": "Insecticidal activity against Symmetrischema tangolias assessed as mortality at 0.65 g/l after 24 hr", "format": "functional"}, "[19]": {"tested_on": "Symmetrischema tangolias", "experiment": "Insecticidal activity against Symmetrischema tangolias assessed as mortality at 5 g/l after 8 days by cage bio assay relative to control", "format": "functional", "conditions": "192 h"}, "[20]": {"tested_on": "Phthorimaea operculella", "experiment": "Insecticidal activity against Phthorimaea operculella assessed as mortality at 1.25 g/l after 24 hr", "format": "functional"}, "[21]": {"tested_on": "Phthorimaea operculella", "experiment": "Insecticidal activity against Phthorimaea operculella assessed as mortality at 0.65 g/l after 48 hr", "format": "functional"}, "[22]": {"tested_on": "Symmetrischema tangolias", "experiment": "Insecticidal activity against Symmetrischema tangolias assessed as mortality at 2.5 g/l after 48 hr", "format": "functional"}, "[23]": {"tested_on": "Phthorimaea operculella", "experiment": "Insecticidal activity against Phthorimaea operculella assessed as mortality at 2.5 g/l after 48 hr", "format": "functional"}, "[24]": {"tested_on": "Phthorimaea operculella", "experiment": "Insecticidal activity against Phthorimaea operculella assessed as mortality at 5 g/l after 6 days by cage bio assay relative to control", "format": "functional", "conditions": "144 h"}, "[25]": {"tested_on": "Phthorimaea operculella", "experiment": "Insecticidal activity against Phthorimaea operculella assessed as mortality at 1.25 g/l after 48 hr", "format": "functional"}, "[26]": {"tested_on": "Symmetrischema tangolias", "experiment": "Insecticidal activity against Symmetrischema tangolias assessed as mortality at 5 g/l after 24 hr by attract-and-kill assay relative to control", "format": "functional"}, "[27]": {"tested_on": "Phthorimaea operculella", "experiment": "Insecticidal activity against Phthorimaea operculella assessed as mortality at 2.5 g/l after 24 hr", "format": "functional"}, "[28]": {"tested_on": "Symmetrischema tangolias", "experiment": "Insecticidal activity against Symmetrischema tangolias assessed as mortality at 2.5 g/l after 24 hr", "format": "functional"}, "[29]": {"tested_on": "Symmetrischema tangolias", "experiment": "Insecticidal activity against Symmetrischema tangolias assessed as mortality at 5 g/l after 3 days by cage bio assay relative to control", "format": "functional", "conditions": "72 h"}, "[30]": {"tested_on": "Symmetrischema tangolias", "experiment": "Insecticidal activity against Symmetrischema tangolias assessed as mortality at 5 g/l after 4 days by attract-and-kill assay relative to control", "format": "functional", "conditions": "96 h"}, "[31]": {"tested_on": "Phthorimaea operculella", "experiment": "Insecticidal activity against Phthorimaea operculella assessed as mortality at 5 g/l after 24 hr by attract-and-kill assay", "format": "functional, organism-based"}, "[32]": {"tested_on": "Phthorimaea operculella", "experiment": "Insecticidal activity against Phthorimaea operculella assessed as mortality at 5 g/l after 24 hr", "format": "functional"}},
  "note": "The source made the active and inactive calls. The rule behind the calls is not given here.",
  "data": [
    {"smiles": "CC1(C)C(C=C(Cl)Cl)C1C(=O)OC(C#N)c1ccc(F)c(Oc2ccccc2)c1", "note": "(configuration not stated) [CYFLUTHRIN]", "values": [
      {"measurement": "mortality at 5000 µg/mL", "setting": "[1]", "value": 40, "unit": "%"},
      {"measurement": "mortality at 350 µg/mL", "setting": "[2]", "value": 31.6, "unit": "%"},
      {"measurement": "mortality at 350 µg/mL", "setting": "[3]", "value": 10.5, "unit": "%"},
      {"measurement": "mortality at 1250 µg/mL", "setting": "[4]", "value": 42.2, "unit": "%"},
      {"measurement": "mortality at 5000 µg/mL", "setting": "[5]", "value": 84.2, "unit": "%"},
      {"measurement": "mortality at 5000 µg/mL", "setting": "[6]", "value": 100, "unit": "%"},
      {"measurement": "mortality at 5000 µg/mL", "setting": "[7]", "value": 44, "unit": "%"},
      {"measurement": "mortality at 1250 µg/mL", "setting": "[8]", "value": 15.6, "unit": "%"},
      {"measurement": "mortality at 350 µg/mL", "setting": "[9]", "value": 21.1, "unit": "%"},
      {"measurement": "mortality at 5000 µg/mL", "setting": "[10]", "value": 53, "unit": "%"},
      {"measurement": "mortality at 350 µg/mL", "setting": "[11]", "value": 22.2, "unit": "%"},
      {"measurement": "mortality at 5000 µg/mL", "setting": "[12]", "value": 100, "unit": "%"},
      {"measurement": "Activity", "setting": "[13]", "value": "Active"},
      {"measurement": "mortality at 5000 µg/mL", "setting": "[14]", "value": 59.4, "unit": "%"},
      {"measurement": "mortality at 650 µg/mL", "setting": "[15]", "value": 31.6, "unit": "%"},
      {"measurement": "mortality at 5000 µg/mL", "setting": "[16]", "value": 77.7, "unit": "%"},
      {"measurement": "mortality at 650 µg/mL", "setting": "[17]", "value": 26.3, "unit": "%"},
      {"measurement": "mortality at 650 µg/mL", "setting": "[18]", "value": 26.6, "unit": "%"},
      {"measurement": "mortality at 5000 µg/mL", "setting": "[19]", "value": 100, "unit": "%"},
      {"measurement": "mortality at 1250 µg/mL", "setting": "[20]", "value": 38.8, "unit": "%"},
      {"measurement": "mortality at 650 µg/mL", "setting": "[21]", "value": 47.4, "unit": "%"},
      {"measurement": "mortality at 2500 µg/mL", "setting": "[22]", "value": 68.3, "unit": "%"},
      {"measurement": "mortality at 2500 µg/mL", "setting": "[23]", "value": 63.2, "unit": "%"},
      {"measurement": "mortality at 5000 µg/mL", "setting": "[24]", "value": 100, "unit": "%"},
      {"measurement": "mortality at 1250 µg/mL", "setting": "[25]", "value": 63.2, "unit": "%"},
      {"measurement": "mortality at 5000 µg/mL", "setting": "[26]", "value": 40, "unit": "%"},
      {"measurement": "mortality at 2500 µg/mL", "setting": "[27]", "value": 47.4, "unit": "%"},
      {"measurement": "mortality at 2500 µg/mL", "setting": "[28]", "value": 52.7, "unit": "%"},
      {"measurement": "mortality at 5000 µg/mL", "setting": "[29]", "value": 100, "unit": "%"},
      {"measurement": "mortality at 5000 µg/mL", "setting": "[30]", "value": 100, "unit": "%"},
      {"measurement": "Activity", "setting": "[31]", "value": "Active"},
      {"measurement": "mortality at 5000 µg/mL", "setting": "[32]", "value": 57.9, "unit": "%"}
    ]}
  ]
}
